According to US8946234B2, “Halogen-substituted compounds” (Bayer CropScience AG, priority 2008, dated 2015):

Key:
[1] = log P from HPLC-MS, no method note printed; assay type: physicochemical; settings: method not given
[2] = logP by HPLC on a C18 phase inversion column, EEC Directive 79/831 Annex V.A8, method b) (HP1100, 5-95% acetonitrile in 1.70 min); assay type: physicochemical; settings: HPLC method b)
Method: ^b) Note regarding the determination of the log P values and mass detection: The log P values given were determined in accordance with EEC Directive 79/831 Annex V.A8 by HPLC (High Performance Liquid Chromatography) on a phase inversion column (C18). HP1100; 50*4.6 Zorbax Eclipse Plus C18 1.8 micron; eluent A: acetonitrile (0.1% formic acid); eluent B: water (0.08% formic acid); linear gradient from 5% acetonitrile to 95% acetonitrile in 1.70 min, then 95% acetonitrile for a further 1.00 min; oven temperature 55° C.; flow: 2.0 ml/min. The mass detection is carried out via the mass detector Micromass ZQ2000 from Waters.

Structure (SMILES)	chromatographic logP [1]	logP [2]
CCOC(=O)c1c(C(F)(F)F)c(C(F)F)nn1C [Ethyl 3-(difluoromethyl)-1-methyl-4-(trifluoromethyl)-1H-pyrazole-5-carboxylate]	3.05	
CCOC(=O)c1c(C(F)(F)F)c(C(C)(C)O)nn1C [Ethyl 3-(2-hydroxypropan-2-yl)-1-methyl-4-(trifluoromethyl)-1H-pyrazole-5-carboxylate]	2.33	
Cc1nc(C(N)=O)c(C(F)(F)F)c(C(F)(F)C(F)(F)F)n1 [2-Methyl-6-(pentafluoroethyl)-5-(trifluoromethyl)pyrimidine-4-carboxamide]	2.33	
Cn1nc(C(O)C2CC2)c(C(F)(F)F)c1C(=O)O (centres unmarked) [3-[Cyclopropyl(hydroxy)methyl]-1-methyl-4-(trifluoromethyl)-1H-pyrazole-5-carboxylic acid]	0.72	
Cn1nc(C(F)F)c(C(F)(F)F)c1C(=O)O [3-(Difluoromethyl)-1-methyl-4-(trifluoromethyl)-1H-pyrazole-5-carboxylic acid]	1.1	
CCOC(=O)c1cnc(C(F)(F)C(F)(F)F)nc1C(F)(F)C(F)(F)F [Ethyl 2,4-bis(pentafluoroethyl)pyrimidine-5-carboxylate]	4.41	
Cn1nc(C2CC2)c(C(F)(F)F)c1C(=O)O [3-Cyclopropyl-1-methyl-4-(trifluoromethyl)-1H-pyrazole-5-carboxylic acid]	1.74	
Cn1nc(C2CC2)c(Br)c1C(=O)O [4-Bromo-3-cyclopropyl-1-methyl-1H-pyrazole-5-carboxylic acid]	1.76	
CCOC(=O)c1sc(C(F)(F)C(F)(F)F)nc1C(F)(F)F [Ethyl 2-(pentafluoroethyl)-4-(trifluoromethyl)-1,3-thiazole-5-carboxylate]	4.36	
CCOC(=O)c1c(C(F)(F)F)c(C(C)(C)F)nn1C [Ethyl 3-(2-fluoropropan-2-yl)-1-methyl-4-(trifluoromethyl)-1H-pyrazole-5-carboxylate]	3.55	
Cn1nc(OC(F)F)c(I)c1C(=O)O [4-Iodo-3-(difluoromethoxy)-1-methyl-1H-pyrazole-5-carboxylic acid]	1.64	
Cn1nc(OCC(F)(F)F)c(Cl)c1C(=O)O [4-Chloro-1-methyl-3-(2,2,2-trifluoroethoxy)-1H-pyrazole-5-carboxylic acid]	2	
CCOC(=O)c1c(C(F)(F)F)c(C2CC2)nn1C [Ethyl 3-cyclopropyl-1-methyl-4-(trifluoromethyl)-1H-pyrazole-5-carboxylate]	3.66	
Cn1nc(OCC(F)(F)F)c(F)c1C(=O)O [4-Fluoro-1-methyl-3-(2,2,2-trifluoroethoxy)-1H-pyrazole-5-carboxylic acid]	1.83	
CCOC(=O)c1c(C(F)(F)F)c(C(O)C2CC2)nn1C (centres unmarked) [Ethyl 3-[cyclopropyl(hydroxy)methyl]-1-methyl-4-(trifluoromethyl)-1H-pyrazole-5-carboxylate]	2.38	
Cn1nc(-c2ccc(C(F)(F)F)cc2)c(C(F)(F)F)c1C(=O)O [1-Methyl-4-(trifluoromethyl)-3-[4-(trifluoromethyl)phenyl]-1H-pyrazole-5-carboxylic acid]	1.24	
O=C(O)c1cnc(C(F)(F)F)nc1-c1ccccn1 [4-(Pyridin-2-yl)-2-(trifluoromethyl)pyrimidine-5-carboxylic acid]	1.5	
O=C(O)c1cnc(C(F)(F)C(F)(F)F)nc1C(F)(F)C(F)(F)F [2,4-Bis(pentafluoroethyl)pyrimidine-5-carboxylic acid]	2.24	

Structure (SMILES)	chromatographic logP [1]	logP [2]
CCOC(=O)c1c(I)c(C2CC2)nn1C [Ethyl 3-cyclopropyl-4-iodo-1-methyl-1H-pyrazole-5-carboxylate]	3.56	
Cn1nc(C(F)(F)C(F)(F)F)c(C(F)(F)F)c1SCc1ccccc1 [5-(Benzylsulphanyl)-1-methyl-3-(pentafluoroethyl)-4-(trifluoromethyl)-1H-pyrazole]	5	
Cn1nc(OC(F)F)cc1C(=O)O [3-(Difluoromethoxy)-1-methyl-1H-pyrazole-5-carboxylic acid]	1.15	
Cn1nc(OCC(F)(F)F)c(I)c1C(=O)O [4-Iodo-1-methyl-3-(2,2,2-trifluoroethoxy)-1H-pyrazole-5-carboxylic acid]	2.11	
Cn1nc(C(F)(F)C(F)(F)F)c(I)c1C(=O)O [1-Methyl-3-pentafluoroethyl-4-iodo-1H-pyrazole-5-carboxylic acid]	2.33	
O=C(O)c1sc(C(F)(F)C(F)(F)F)nc1C(F)(F)F [2-(Pentafluoroethyl)-4-(trifluoromethyl)-1,3-thiazole-5-carboxylic acid]	2.06	
O=C(O)c1nccc(Cl)c1C(F)(F)F [4-Chloro-3-(trifluoromethyl)pyridine-2-carboxylic acid]	1.16	
Cn1nc(OCC(F)(F)F)c(Br)c1C(=O)O [4-Bromo-1-methyl-3-(2,2,2-trifluoroethoxy)-1H-pyrazole-5-carboxylic acid]	2.03	
CCOC(=O)c1c(C(F)(F)F)c(C=O)nn1C [Ethyl 3-formyl-1-methyl-4-(trifluoromethyl)-1H-pyrazole-5-carboxylate]	2.4	
Cn1nc(C(C)(C)F)c(C(F)(F)F)c1C(=O)O [3-(2-Fluoropropan-2-yl)-1-methyl-4-(trifluoromethyl)-1H-pyrazole-5-carboxylic acid]	1.43	
Cn1nc(OC(F)F)c(Cl)c1C(=O)O [4-Chloro-3-(difluoromethoxy)-1-methyl-1H-pyrazole-5-carboxylic acid]	1.5	
Cn1nc(C(F)(F)C(F)(F)F)c(C(F)(F)F)c1C(=O)Nc1ccc(Cl)c(C(=O)NC2CCOCC2)c1 [Ik-285]		3.06^b)
C[C@H](NC(=O)c1cc(NC(=O)c2c(C(F)(F)F)c(C(F)(F)C(F)(F)F)nn2C)ccc1Cl)C(F)(F)F [Ik-294]		3.63^b)
CC(NC(=O)c1cc(NC(=O)c2c(C(F)(F)F)c(C(F)(F)C(F)(F)F)nn2C)ccc1Cl)C1(Cl)CC1 (centres unmarked) [Ik-288]		4.05^b)
Cn1nc(C(F)(F)C(F)(F)F)c(C(F)(F)F)c1C(=O)Nc1ccc(Cl)c(C(=O)NCC(F)(F)C(F)(F)F)c1 [Ik-302]		3.78^b)
Cn1nc(C(F)(F)C(F)(F)F)c(C(F)(F)F)c1C(=O)Nc1ccc(Cl)c(C(=O)NC(C2CC2)C2CC2)c1 [Ik-61]		4.00^b)
Cn1nc(OC(F)F)c(Br)c1C(=O)O [4-Bromo-3-(difluoromethoxy)-1-methyl-1H-pyrazole-5-carboxylic acid]	1.52	
Cn1nc(OCC(F)(F)F)cc1C(=O)O [1-Methyl-3-(2,2,2-trifluoroethoxy)-1H-pyrazole-5-carboxylic acid]	1.65	

Now from value to compound, other results behind:

chromatographic logP [1]	Structure (SMILES)	logP [2]
4.14	COC(=O)c1c(C(F)(F)F)c(-c2ccc(C(F)(F)F)cc2)nn1C [Methyl 1-methyl-4-(trifluoromethyl)-3-[4-(trifluoromethyl)phenyl]-1H-pyrazole-5-carboxylate]	
2.57	COC(=O)c1c(Cl)c(OC(F)F)nn1C [Methyl 4-chloro-3-(difluoromethoxy)-1-methyl-1H-pyrazole-5-carboxylate]	
2.79	COC(=O)c1c(F)c(OCC(F)(F)F)nn1C [Methyl 4-fluoro-1-methyl-3-(2,2,2-trifluoroethoxy)-1H-pyrazole-5-carboxylate]	
2.04	COC(=O)c1cc(OC(F)F)nn1C [Methyl-3-(difluoromethoxy)-1-methyl-1H-pyrazole-5-carboxylate]	
3.14	COC(=O)c1c(Br)c(OCC(F)(F)F)nn1C [Methyl 4-bromo-1-methyl-3-(2,2,2-trifluoroethoxy)-1H-pyrazole-5-carboxy late]	
3.82	COC(=O)c1cc(-c2ccc(C(F)(F)F)cc2)nn1C [Methyl 1-methyl-3-[4-(trifluoromethyl)phenyl]-1H-pyrazole-5-carboxylate]	
3.09	CCOC(=O)c1cnc(C(F)(F)F)nc1-c1ccccn1 [Ethyl 4-(pyridin-2-yl)-2-(trifluoromethyl)pyrimidine-5-carboxylate]	
2.61	COC(=O)c1cc(OCC(F)(F)F)nn1C [Methyl 1-methyl-3-(2,2,2-trifluoroethoxy)-1H-pyrazole-5-carboxylate]	
4.23	COC(=O)c1c(I)c(-c2ccc(C(F)(F)F)cc2)nn1C [Methyl 4-iodo-1-methyl-3-[4-(trifluoromethyl)phenyl]-1H-pyrazole-5-carboxylate]	
2.62	COC(=O)c1c(Br)c(OC(F)F)nn1C [Methyl 4-bromo-3-(difluoromethoxy)-1-methyl-1H-pyrazole-5-carboxylate]	
3.08	COC(=O)c1c(Cl)c(OCC(F)(F)F)nn1C [Methyl 4-chloro-1-methyl-3-(2,2,2-trifluoroethoxy)-1H-pyrazole-5-carboxylate]	
1.74	CCOC(=O)c1c(C(F)(F)F)c(CO)nn1C [Ethyl-3-(hydroxymethyl)-1-methyl-4-(trifluoromethyl)-1H-pyrazole-5-carboxylate]	
2.69	COC(=O)c1c(I)c(OC(F)F)nn1C [Methyl 3-(difluoromethoxy)-4-iodo-1-methyl-1H-pyrazole-5-carboxylate]	
3.17	COC(=O)c1c(I)c(OCC(F)(F)F)nn1C [Methyl 4-iodo-1-methyl-3-(2,2,2-trifluoroethoxy)-1H-pyrazole-5-carboxylate]	
